From publication PMC11233931, “Remodeling tumor‐associated macrophage for anti‐cancer effects by rational design of irreversible inhibition of mitogen‐activated protein kinase‐activated protein kinase 2” (MedComm, 2024)

Key:
Test in all cases: Eurofins kinase selectivity profile against 380 other human recombinant kinases (Table S2)
Type in all cases: biochemical
[1] = target: T1, 380 human recombinant protein kinases (Homo sapiens, UniProt O75716); conditions: STK16(h), read-out: Inhibition rate (%)
T1 construct: purchased Eurofins (Celle Lévescault)
T1 sequence (O75716 whole entry): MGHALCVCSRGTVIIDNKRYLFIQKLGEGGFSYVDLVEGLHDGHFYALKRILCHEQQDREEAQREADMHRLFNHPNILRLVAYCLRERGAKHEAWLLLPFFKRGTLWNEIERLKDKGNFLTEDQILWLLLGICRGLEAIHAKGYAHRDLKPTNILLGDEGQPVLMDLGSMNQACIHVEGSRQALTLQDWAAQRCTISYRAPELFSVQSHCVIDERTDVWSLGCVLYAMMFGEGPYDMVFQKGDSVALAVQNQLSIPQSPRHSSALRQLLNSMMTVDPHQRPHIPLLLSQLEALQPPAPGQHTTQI
How it was run: (§1)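 Selectivity panel of 380 human recombinant protein kinases, screened by Eurofins at a range of concentrations.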

[2] = target: T2, 380 human recombinant protein kinases (Homo sapiens, UniProt P48730); conditions: CK1δ(h), read-out: Inhibition rate
T2 construct: purchased Eurofins (Celle Lévescault)
T2 sequence (P48730 whole entry): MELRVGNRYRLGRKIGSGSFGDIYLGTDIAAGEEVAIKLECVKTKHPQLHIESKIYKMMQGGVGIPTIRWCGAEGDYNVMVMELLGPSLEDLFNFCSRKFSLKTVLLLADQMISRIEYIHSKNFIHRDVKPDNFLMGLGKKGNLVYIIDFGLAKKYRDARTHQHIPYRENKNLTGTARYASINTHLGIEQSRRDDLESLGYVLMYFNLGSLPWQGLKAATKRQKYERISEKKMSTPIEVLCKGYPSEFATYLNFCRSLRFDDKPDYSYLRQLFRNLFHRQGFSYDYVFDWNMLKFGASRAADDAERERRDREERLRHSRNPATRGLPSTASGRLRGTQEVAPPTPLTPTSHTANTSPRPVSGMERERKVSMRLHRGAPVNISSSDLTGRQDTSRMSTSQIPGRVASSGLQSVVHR
How it was run: as §1

[3] = target: T3, 380 human recombinant protein kinases (Homo sapiens, UniProt O75676); conditions: MSK2(h), read-out: Inhibition rate
T3 construct: purchased Eurofins (Celle Lévescault)
T3 sequence (O75676 whole entry): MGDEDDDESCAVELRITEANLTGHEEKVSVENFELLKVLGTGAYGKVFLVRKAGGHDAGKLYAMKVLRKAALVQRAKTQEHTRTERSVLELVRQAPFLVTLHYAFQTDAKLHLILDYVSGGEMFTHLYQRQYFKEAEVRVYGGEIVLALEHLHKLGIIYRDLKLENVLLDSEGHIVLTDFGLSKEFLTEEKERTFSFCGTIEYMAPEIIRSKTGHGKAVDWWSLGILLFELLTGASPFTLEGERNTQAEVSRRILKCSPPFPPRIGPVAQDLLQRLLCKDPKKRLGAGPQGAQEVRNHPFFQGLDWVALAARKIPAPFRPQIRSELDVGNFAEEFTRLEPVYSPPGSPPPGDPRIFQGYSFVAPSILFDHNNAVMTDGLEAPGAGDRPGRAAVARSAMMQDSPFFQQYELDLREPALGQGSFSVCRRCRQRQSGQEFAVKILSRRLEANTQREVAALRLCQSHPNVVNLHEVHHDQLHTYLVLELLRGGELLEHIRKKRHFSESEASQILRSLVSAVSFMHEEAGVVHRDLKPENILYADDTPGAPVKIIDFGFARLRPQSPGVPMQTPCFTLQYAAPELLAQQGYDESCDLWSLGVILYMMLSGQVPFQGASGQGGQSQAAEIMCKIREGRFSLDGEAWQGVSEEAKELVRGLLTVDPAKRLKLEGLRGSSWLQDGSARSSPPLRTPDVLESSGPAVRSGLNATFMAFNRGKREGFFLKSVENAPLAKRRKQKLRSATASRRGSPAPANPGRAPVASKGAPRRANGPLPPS
How it was run: as §1

[4] = target: T4, 380 human recombinant protein kinases (Homo sapiens, UniProt Q16513); conditions: PRK2(h), read-out: Inhibition rate
T4 construct: purchased Eurofins (Celle Lévescault)
T4 sequence (Q16513 whole entry): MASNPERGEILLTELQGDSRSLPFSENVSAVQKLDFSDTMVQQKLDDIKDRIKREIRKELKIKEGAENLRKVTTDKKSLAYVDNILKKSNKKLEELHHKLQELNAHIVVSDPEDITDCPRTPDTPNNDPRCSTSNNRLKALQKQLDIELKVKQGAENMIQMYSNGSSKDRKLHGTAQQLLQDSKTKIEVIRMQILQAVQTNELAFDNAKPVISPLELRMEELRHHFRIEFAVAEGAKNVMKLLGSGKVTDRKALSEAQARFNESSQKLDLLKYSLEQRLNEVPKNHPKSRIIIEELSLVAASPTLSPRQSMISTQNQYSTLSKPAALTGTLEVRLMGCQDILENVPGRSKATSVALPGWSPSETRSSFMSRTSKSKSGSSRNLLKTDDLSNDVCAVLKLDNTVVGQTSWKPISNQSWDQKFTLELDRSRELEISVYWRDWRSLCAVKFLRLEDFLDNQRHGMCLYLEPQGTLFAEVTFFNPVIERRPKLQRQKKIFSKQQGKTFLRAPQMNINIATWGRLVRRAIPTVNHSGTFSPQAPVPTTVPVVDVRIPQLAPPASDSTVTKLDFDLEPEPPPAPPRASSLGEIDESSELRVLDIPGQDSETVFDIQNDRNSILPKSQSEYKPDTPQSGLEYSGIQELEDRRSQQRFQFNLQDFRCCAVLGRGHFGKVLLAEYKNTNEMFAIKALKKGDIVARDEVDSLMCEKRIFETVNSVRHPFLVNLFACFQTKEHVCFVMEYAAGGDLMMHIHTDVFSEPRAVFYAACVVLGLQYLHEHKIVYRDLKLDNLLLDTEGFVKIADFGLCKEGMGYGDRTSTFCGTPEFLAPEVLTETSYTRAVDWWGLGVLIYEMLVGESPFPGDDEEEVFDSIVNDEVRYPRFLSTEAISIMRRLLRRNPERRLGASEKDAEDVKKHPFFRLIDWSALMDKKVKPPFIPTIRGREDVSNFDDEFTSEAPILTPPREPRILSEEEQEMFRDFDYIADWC
How it was run: as §1

[5] = target: T5, 380 human recombinant protein kinases (Homo sapiens, UniProt P34947); conditions: GRK5(h), read-out: Inhibition rate
T5 construct: purchased Eurofins (Celle Lévescault)
How it was run: as §1

[6] = target: T6, 380 human recombinant protein kinases (Homo sapiens, UniProt Q9H422); conditions: HIPK3(h), read-out: Inhibition rate
T6 construct: purchased Eurofins (Celle Lévescault)
T6 sequence (Q9H422 whole entry): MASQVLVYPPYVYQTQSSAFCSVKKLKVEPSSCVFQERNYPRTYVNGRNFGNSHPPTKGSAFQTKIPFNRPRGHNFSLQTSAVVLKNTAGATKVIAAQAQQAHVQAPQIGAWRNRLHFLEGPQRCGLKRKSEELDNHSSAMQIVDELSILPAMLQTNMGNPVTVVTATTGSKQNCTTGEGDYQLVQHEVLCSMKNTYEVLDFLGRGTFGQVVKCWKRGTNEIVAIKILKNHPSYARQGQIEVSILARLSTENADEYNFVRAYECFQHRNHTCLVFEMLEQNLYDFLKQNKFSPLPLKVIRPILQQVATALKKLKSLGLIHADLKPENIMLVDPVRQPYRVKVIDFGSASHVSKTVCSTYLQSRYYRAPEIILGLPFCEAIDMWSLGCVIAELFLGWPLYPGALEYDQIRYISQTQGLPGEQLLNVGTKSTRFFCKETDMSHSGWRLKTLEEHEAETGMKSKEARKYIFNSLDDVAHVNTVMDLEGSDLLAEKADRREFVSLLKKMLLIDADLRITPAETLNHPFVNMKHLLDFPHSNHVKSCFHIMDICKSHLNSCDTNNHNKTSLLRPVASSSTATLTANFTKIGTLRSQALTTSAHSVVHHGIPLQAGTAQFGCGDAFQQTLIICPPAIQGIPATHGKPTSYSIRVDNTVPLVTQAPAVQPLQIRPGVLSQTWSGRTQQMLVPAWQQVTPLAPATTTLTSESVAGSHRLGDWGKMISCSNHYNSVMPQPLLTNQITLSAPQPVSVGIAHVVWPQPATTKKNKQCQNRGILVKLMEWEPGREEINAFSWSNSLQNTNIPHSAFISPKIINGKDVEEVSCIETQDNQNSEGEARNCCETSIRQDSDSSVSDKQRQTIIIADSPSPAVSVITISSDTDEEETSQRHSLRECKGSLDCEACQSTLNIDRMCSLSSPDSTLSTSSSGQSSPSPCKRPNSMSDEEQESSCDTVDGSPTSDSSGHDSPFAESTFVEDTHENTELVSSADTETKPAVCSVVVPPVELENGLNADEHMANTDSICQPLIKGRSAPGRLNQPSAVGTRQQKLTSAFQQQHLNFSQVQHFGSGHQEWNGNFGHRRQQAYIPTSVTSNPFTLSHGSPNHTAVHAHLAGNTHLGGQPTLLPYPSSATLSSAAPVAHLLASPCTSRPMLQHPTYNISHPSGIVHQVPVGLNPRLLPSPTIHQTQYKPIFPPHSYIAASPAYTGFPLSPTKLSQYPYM
How it was run: as §1

[7] = target: T7, 380 human recombinant protein kinases (Homo sapiens, UniProt Q9Y6E0); conditions: MST3(h), read-out: Inhibition rate
T7 construct: purchased Eurofins (Celle Lévescault)
T7 sequence (Q9Y6E0 whole entry): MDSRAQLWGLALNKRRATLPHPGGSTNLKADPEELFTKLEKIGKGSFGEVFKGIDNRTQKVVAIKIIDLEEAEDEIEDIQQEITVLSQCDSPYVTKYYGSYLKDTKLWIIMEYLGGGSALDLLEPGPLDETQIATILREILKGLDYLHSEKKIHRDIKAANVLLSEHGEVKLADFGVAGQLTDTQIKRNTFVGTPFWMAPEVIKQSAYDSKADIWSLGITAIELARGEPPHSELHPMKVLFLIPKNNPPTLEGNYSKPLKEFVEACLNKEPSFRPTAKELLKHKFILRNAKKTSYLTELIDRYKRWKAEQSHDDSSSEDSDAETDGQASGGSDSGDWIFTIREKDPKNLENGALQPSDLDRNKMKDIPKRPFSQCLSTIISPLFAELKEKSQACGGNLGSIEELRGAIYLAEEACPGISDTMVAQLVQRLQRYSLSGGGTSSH
How it was run: as §1

[8] = target: T8, 380 human recombinant protein kinases (Homo sapiens, UniProt Q13555); conditions: CaMKIIγ(h), read-out: Inhibition rate
T8 construct: purchased Eurofins (Celle Lévescault)
T8 sequence (Q13555 whole entry): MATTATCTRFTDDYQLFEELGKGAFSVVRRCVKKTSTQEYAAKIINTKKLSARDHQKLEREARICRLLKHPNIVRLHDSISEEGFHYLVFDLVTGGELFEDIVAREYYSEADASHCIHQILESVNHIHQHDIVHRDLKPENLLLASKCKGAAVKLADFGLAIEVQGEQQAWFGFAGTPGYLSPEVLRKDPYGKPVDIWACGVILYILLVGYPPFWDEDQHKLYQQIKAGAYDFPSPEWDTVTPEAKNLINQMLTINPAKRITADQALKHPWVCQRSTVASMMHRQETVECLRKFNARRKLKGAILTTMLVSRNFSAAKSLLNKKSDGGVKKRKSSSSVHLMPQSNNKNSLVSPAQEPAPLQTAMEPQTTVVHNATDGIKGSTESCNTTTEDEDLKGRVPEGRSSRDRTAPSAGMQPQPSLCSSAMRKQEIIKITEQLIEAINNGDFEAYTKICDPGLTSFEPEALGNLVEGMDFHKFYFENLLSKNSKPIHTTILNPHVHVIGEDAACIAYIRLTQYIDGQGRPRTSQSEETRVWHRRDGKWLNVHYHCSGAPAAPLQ
How it was run: as §1

[9] = target: T9, 380 human recombinant protein kinases (Homo sapiens, UniProt P54764); conditions: EphA4(h), read-out: Inhibition rate
T9 construct: purchased Eurofins (Celle Lévescault)
How it was run: as §1

[10] = target: T10, 380 human recombinant protein kinases (Homo sapiens, UniProt P48736); conditions: PI3 Kinase (p120γ)(h), read-out: Inhibition rate (%)
T10 construct: purchased Eurofins (Celle Lévescault)
How it was run: as §1

[11] = target: T11, 380 human recombinant protein kinases (Homo sapiens, UniProt O43318); conditions: TAK1(h), read-out: Inhibition rate (%)
T11 construct: purchased Eurofins (Celle Lévescault)
T11 sequence (O43318 1-606): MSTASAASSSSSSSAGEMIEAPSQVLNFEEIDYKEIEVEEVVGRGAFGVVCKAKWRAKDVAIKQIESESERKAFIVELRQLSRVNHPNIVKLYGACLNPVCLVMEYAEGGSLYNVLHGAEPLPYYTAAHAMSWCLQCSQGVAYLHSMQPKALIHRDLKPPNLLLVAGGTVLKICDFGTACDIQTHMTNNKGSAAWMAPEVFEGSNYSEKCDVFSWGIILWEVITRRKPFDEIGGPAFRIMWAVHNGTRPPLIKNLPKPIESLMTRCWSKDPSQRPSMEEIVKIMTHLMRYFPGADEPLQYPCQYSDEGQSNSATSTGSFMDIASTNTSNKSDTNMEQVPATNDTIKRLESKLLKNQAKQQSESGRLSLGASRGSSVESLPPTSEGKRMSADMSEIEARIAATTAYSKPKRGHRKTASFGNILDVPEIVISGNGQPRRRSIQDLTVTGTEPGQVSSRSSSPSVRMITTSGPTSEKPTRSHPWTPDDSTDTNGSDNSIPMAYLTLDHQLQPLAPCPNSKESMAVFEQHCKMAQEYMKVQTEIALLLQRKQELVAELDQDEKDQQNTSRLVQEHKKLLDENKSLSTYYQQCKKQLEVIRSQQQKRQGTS
How it was run: as §1

**Q.** How did the inhibition at 0.01 µM ([1]; 10 nM) turn out when `C=CC(=O)Nc1cc(-c2cc(-c3cc4c([nH]3)CCNC4=O)ccn2)ccc1OC(F)(F)F` [compound 11] was run?
**A.** The inhibition at 0.01 µM was 0%.

**Q.** What about the inhibition at 0.1 µM ([1]; 100 nM) of the same compound?
**A.** Its inhibition at 0.1 µM is -3%.

**Q.** And the inhibition at 1 µM ([1]; 1000 nM)?
**A.** Its inhibition at 1 µM is 11%.

**Q.** And the inhibition at 0.01 µM ([2]; 10 nM)?
**A.** Its inhibition at 0.01 µM is 3%.

**Q.** And the inhibition at 0.1 µM ([2]; 100 nM)?
**A.** Its inhibition at 0.1 µM is 26%.

**Q.** And the inhibition at 1 µM ([2]; 1000 nM)?
**A.** Its inhibition at 1 µM is 74%.

**Q.** And the inhibition at 0.01 µM ([3]; 10 nM)?
**A.** Its inhibition at 0.01 µM is -8%.

**Q.** And the inhibition at 0.1 µM ([3]; 100 nM)?
**A.** The inhibition at 0.1 µM was -5%.

**Q.** What about the inhibition at 1 µM ([3]; 1000 nM) of the same compound?
**A.** Its inhibition at 1 µM is -13%.

**Q.** And the inhibition at 0.01 µM ([4]; 10 nM)?
**A.** Its inhibition at 0.01 µM is -2%.

**Q.** And the inhibition at 0.1 µM ([4]; 100 nM)?
**A.** Its inhibition at 0.1 µM is 3%.

**Q.** And the inhibition at 1 µM ([4]; 1000 nM)?
**A.** Its inhibition at 1 µM is 5%.

**Q.** What about the inhibition at 0.01 µM ([5]; 10 nM) of the same compound?
**A.** Its inhibition at 0.01 µM is -6%.

**Q.** And the inhibition at 0.1 µM ([5]; 100 nM)?
**A.** Its inhibition at 0.1 µM is -2%.

**Q.** What about the inhibition at 1 µM ([5]; 1000 nM) of the same compound?
**A.** The inhibition at 1 µM was 0%.

**Q.** And the inhibition at 0.01 µM ([6]; 10 nM)?
**A.** Its inhibition at 0.01 µM is -9%.

**Q.** And the inhibition at 0.1 µM ([6]; 100 nM)?
**A.** The inhibition at 0.1 µM was -8%.

**Q.** And the inhibition at 1 µM ([6]; 1000 nM)?
**A.** The inhibition at 1 µM was 1%.

**Q.** And the inhibition at 0.01 µM ([7]; 10 nM)?
**A.** The inhibition at 0.01 µM was -6%.

**Q.** And the inhibition at 0.1 µM ([7]; 100 nM)?
**A.** The inhibition at 0.1 µM was 2%.

**Q.** And the inhibition at 1 µM ([7]; 1000 nM)?
**A.** Its inhibition at 1 µM is 2%.

**Q.** What about the inhibition at 0.01 µM ([8]; 10 nM) of the same compound?
**A.** The inhibition at 0.01 µM was -5%.

**Q.** What about the inhibition at 0.1 µM ([8]; 100 nM) of the same compound?
**A.** Its inhibition at 0.1 µM is 6%.

**Q.** What about the inhibition at 1 µM ([8]; 1000 nM) of the same compound?
**A.** The inhibition at 1 µM was 18%.

**Q.** And the inhibition at 0.01 µM ([9]; 10 nM)?
**A.** Its inhibition at 0.01 µM is -1%.

**Q.** What about the inhibition at 0.1 µM ([9]; 100 nM) of the same compound?
**A.** Its inhibition at 0.1 µM is 3%.

**Q.** What about the inhibition at 1 µM ([9]; 1000 nM) of the same compound?
**A.** The inhibition at 1 µM was -7%.

**Q.** And the inhibition at 0.01 µM ([10]; 10 nM)?
**A.** Its inhibition at 0.01 µM is 1%.

**Q.** What about the inhibition at 0.1 µM ([10]; 100 nM) of the same compound?
**A.** The inhibition at 0.1 µM was -1%.

**Q.** What about the inhibition at 1 µM ([10]; 1000 nM) of the same compound?
**A.** The inhibition at 1 µM was 3%.

**Q.** What about the inhibition at 0.01 µM ([11]; 10 nM) of the same compound?
**A.** The inhibition at 0.01 µM was 9%.

**Q.** And the inhibition at 0.1 µM ([11]; 100 nM)?
**A.** The inhibition at 0.1 µM was 2%.

**Q.** What about the inhibition at 1 µM ([11]; 1000 nM) of the same compound?
**A.** The inhibition at 1 µM was 47%.
